Test results from US8987209B2, “N-carboxyalkyl-auristatin and the use thereof” (Seattle Genetics, Inc., priority 2010, dated 2015).
pIC50: −log10 of the molar value. Square brackets hold non-standard residues; d marks the D form. Peptide text beside a SMILES is read from it. * marks the point of attachment. NMeVal(N-(CH2)3COOH) = CC(C)[C@@H](C(=O)*)N(C)CCCC(=O)O; Dolaproine = CO[C@@H]([C@@H]1CCCN1)[C@@H](C)C(=O)O; Dil = CC[C@H](C)[C@H](NC)[C@@H](CC(=O)O)OC; X5 = C[C@@H](N*)[C@@H](O)c1ccccc1; NMeV = CN[C@H](C(=O)O)C(C)C

How the values were obtained:
[1] = tested on: human renal carcinoma cell line 786-0; experiment: Anti-proliferative effect on renal cell carcinoma 786-0 cell line (MTT assay); assay type: cell-based; details: 786-0 cells, incubation 48 to 96 hours, serum free medium or 2% FCS
Procedure: B-1. Determination of Anti-proliferative Effects of Renal Cell Carcinoma 786-0 Cell Line:
A defined number of cells of the human renal carcinoma cell line 786-0 were cultured in a 96 well micro titer plate in rich medium (2500 or 7.000 cells/well) and then incubated over night at 37° C./5% CO2. After 18 hours the seed medium was replaced by a serum free medium or medium with 2% FCS. The treatment began with measuring out the respective test substances in varying concentrations (10^−5 M to 10^−14 M). Incubation times of between 48 hours and 96 hours were chosen. The proliferation was determined by means of the MTT assay (ATCC, Manassas, Va., USA, catalogue no. 30-1010K). After completion of incubation period the MTT reagent was incubated with the cells for 4 hours before lysis occurred over night by measuring out the detergent. The created stain was detected at 570 nm. The proliferation of the cells, which were treated identically to the other cells but without the test substance was defined as the 100% value. The data obtained from this test represent triple determinations and at least two experiments had been carried out independently of each other.

[2] = tested on: HT-29 wt cell line; experiment: Anti-proliferative effect on HT-29 wt cell line (MTT assay); assay type: cell-based, human; details: HT-29 wt cells, incubation 48 to 96 hours, medium with 10% FCS
Procedure: B-2. Determination of Anti-proliferative Effects of HT-29 wt Cell Line:
After 18 hours the seed medium was replaced by a fresh medium with 10% FCS. The treatment started with measuring out the respective test substance. The dose-response curves were determined of the investigative substances with a concentration of 10^−5 M to 10^−14 M (1:10 dilutions). Incubation times of between 48 hours and 96 hours were chosen. The proliferation was detected by means of the MTT assay (ATCC, Manassas, Va., USA, catalogue no. 30-1010K). After completion of selected incubation period the MTT reagent was incubated with the cells for 4 hours before lysis occurred over night by measuring out the detergent. The created stain was detected at 570 nm. The proliferation of the cells, which were treated identically to the other cells but without the test substance, was defined as the 100% value. The data obtained from this test represent triple determinations and at least two experiments had been carried out independently of each other.

[3] = Cell permeability, flux assay using Caco-2 cells; assay type: in vitro ADME; details: human, basal to apical, 2 hours incubation
Procedure: (§1) B-5. Determination of Cell Permeability:
(§2) The cell permeability of a substance can be analyzed by means of in vitro tests in a flux assay using Caco-2-cells [M. D. Troutman and D. R. Thakker, Pharm. Res. 20 (8), 1210-1224 (2003)]. For this analysis the cells were cultured on 24 membrane filter plates for 15 to 16 days. In order to determine permeation the test substance in question was given either apical (A) to a HEPES buffer or basal (B) on the cells and incubated for 2 hours. The samples were withdrawn after 0 and 2 hours from the cis and trans compartments. The samples were separated by means of HPLC (Agilent 1200, Böblingen, Germany) using reverse-phase columns. The HPLC system was coupled to a triple quadropol mass spectrometer API 4000 (Applied Biosystems Applera, Darmstadt, Germany) via a turbo ion spray. The permeability was evaluated by means of the Papp value which was calculated with the help of the formula published by Schwab et al. [D. Schwab et al., J. Med. Chem. 46, 1716-1725 (2003)]. A substance was classified as active if the ratio of Papp (B-a) to Papp (A-B) was >2 or <0.5.
(§3) The permeability from B to A [Papp^(B-A)] is particularly important for toxophores which are being released intracellular: The lower the permeability the longer the residence time of the substance in the cell after intracellular release and, consequently, the more time available for interaction with the biochemical target (here: tubulin).

[4] = tested on: Caco-2-cells; experiment: Cell permeability, flux assay using Caco-2 cells; assay type: in vitro ADME; details: basal to apical, 2 hours incubation
Procedure: as §1, §2, §3

SMILES	pIC50 ([1]; Homo sapiens)	pIC50 ([2]; Homo sapiens)	Papp B→A at 2 h [3] [×10⁻⁶ cm/s]	Papp (B-A) [4] [×10⁻⁶ cm/s]	pIC50 [1]	pIC50 [2]
CCCNC(=O)[C@]1(NC(=O)[C@H](C)[C@@H](OC)[C@@H]2CCCN2C(=O)C[C@@H](OC)[C@H]([C@@H](C)CC)N(C)C(=O)[C@@H](NC(=O)[C@H](C(C)C)N(C)CCCC(=O)O)C(C)C)C[C@@H]1c1ccccc1 [Example 11, N-(3-carboxypropyl)-N-methyl-L-valyl-N-[(3R,4S,5S)-3-methoxy-1-{(2S)-2-[(1R,2R)-1-methoxy-2-methyl-3-oxo-3-{[(1S,2R)-2-phenyl-1-(propylcarbamoyl)cyclopropyl]amino}propyl]pyrrolidin-1-yl}-5-methyl-1-oxoheptan-4-yl]-N-methyl-L-valinamide]	8.17	9.10	1.1			
CC[C@H](C)[C@@H]([C@@H](CC(=O)N1CCC[C@H]1[C@H](OC)[C@@H](C)C(=O)N[C@@H](Cc1ccccc1)C(N)=O)OC)N(C)C(=O)[C@@H](NC(=O)[C@H](C(C)C)N(C)CCCC(=O)O)C(C)C [Example 13, N-(3-carboxypropyl)-N-methyl-L-valyl-N-[(3R,4S,5S)-1-{(2S)-2-[(1R,2R)-3-{[(2S)-1-amino-1-oxo-3-phenylpropan-2-yl]amino}-1-methoxy-2-methyl-3-oxopropyl]pyrrolidin-1-yl}-3-methoxy-5-methyl-1-oxoheptan-4-yl]-N-methyl-L-valinamide] ({NMeVal(N-(CH2)3COOH)}-V[Dil][Dolaproine]F-NH2)	7.90	9.00	1			
CC[C@H](C)[C@@H]([C@@H](CC(=O)N1CCC[C@H]1[C@H](OC)[C@@H](C)C(=O)N[C@@H](Cc1c[nH]c2ccccc12)C(N)=O)OC)N(C)C(=O)[C@@H](NC(=O)[C@H](C(C)C)N(C)CCCC(=O)O)C(C)C [Example 18, N-(3-carboxypropyl)-N-methyl-L-valyl-N-[(3R,4S,5S)-1-{(2S)-2-[(1R,2R)-3-{[(2S)-1-amino-3-(1H-indol-3-yl)-1-oxopropane2-yl]amino}-1-methoxy-2-methyl-3-oxopropyl]pyrrolidin-1-yl}-3-methoxy-5-methyl-1-oxoheptan-4-yl]-N-methyl-L-valinamide] ({NMeVal(N-(CH2)3COOH)}-V[Dil][Dolaproine]W-NH2)	6.76	7.80	0.2			
CC[C@H](C)[C@@H]([C@@H](CC(=O)N1CCC[C@H]1[C@H](OC)[C@@H](C)C(=O)N[C@H](C)[C@@H](O)c1ccccc1)OC)N(C)C(=O)[C@@H](NC(=O)[C@@H](NC)C(C)C)C(C)C [MMAE, monomethylauristatin E, reference compound] (H-[NMeV]V[Dil][Dolaproine]-X5)				8.9		
CC[C@H](C)[C@@H]([C@@H](CC(=O)N1CCC[C@H]1[C@H](OC)[C@@H](C)C(=O)N[C@@H](Cc1ccccc1)C(=O)O)OC)N(C)C(=O)[C@@H](NC(=O)[C@@H](NC)C(C)C)C(C)C [MMAF, Monomethylauristatin F, reference compound] (H-[NMeV]V[Dil][Dolaproine]F-OH)				7.3	6.59	8.00
